Assay results: patent US4775680A, “Cyclohept[b]indolealkanoic acids, pharmaceutical compositions and use” (Merck & Co., Inc., priority 1987, dated 1988)

Legend:
[1] = molecular target: T1, guinea pig tracheal chain (Cavia porcellus, UniProt A0A286Y4I8); assay: Estimation of pA2 values in guinea pig tracheal chain (agonist U-44069); type: cell-based, guinea pig (male albino Hartley strain); settings: for Kb: logarithmic scale, agonist U-44069, guinea pig tracheal chain
T1 construct: The trachea was removed, freed of extraneous tissue and sectioned into rings; from tissue; host or cells: guinea pig trachea (male albino Hartley strain)
T1 sequence (A0A286Y4I8 1-347): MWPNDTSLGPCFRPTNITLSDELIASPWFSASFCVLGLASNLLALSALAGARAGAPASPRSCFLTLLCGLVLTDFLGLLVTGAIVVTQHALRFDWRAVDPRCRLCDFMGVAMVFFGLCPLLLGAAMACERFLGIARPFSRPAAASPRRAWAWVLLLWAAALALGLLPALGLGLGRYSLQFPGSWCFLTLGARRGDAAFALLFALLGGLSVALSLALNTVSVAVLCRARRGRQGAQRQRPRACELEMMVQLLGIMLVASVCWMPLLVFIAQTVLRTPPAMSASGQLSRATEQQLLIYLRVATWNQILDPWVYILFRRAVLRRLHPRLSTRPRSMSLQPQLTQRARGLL
Description: ESTIMATION OF pA2 VALUES IN GUINEA PIG TRACHEAL CHAIN
Male albino Hartley strain guinea pigs (300-350 gm) were sacrificed by a blow to the head and exsanguinated. The trachea was removed, freed of extraneous tissue and sectioned into rings of 1-2 mm thickness. Five rings were tied together in series, ensuring that the tracheal muscle lay in the same vertical plane, and the cartilage of each ring then separated at a point directly opposite the muscle. The chains were suspended under 1 gm resting tension in modified Krebs solution (NaCl, 6.87; NaHCO3, 2.1; dextrose, 2.1; KCl, 0.32; CaCl2, 0.28; MgSO4, 7H2 O, 0.11; KH2 PO4, 0.16; gm/L: equilibrated with 5% CO2 in O2 for 1 hour) containing indomethacin (1.4×10-^5 M) to suppress endogenous protaglandin synthesis, Organ bath temperature was maintained at 37° C. and 5% CO2 in O2 diffused continously. Isometric tension changes were recorded from a Gould-Statham (UTC 2) force displacement transducer connected to a Beckman Type R Dynograph. For assay purposes initial maximal contractions were elicited with a high concentration of the contractile agonist [U-44069, 9.11-dideoxy-9a,11a-epoxymethano PGF2a ] and the tissue subsequently washed at intervals until tension returned to baseline. Agonist dose response curves were obtained using a cumulative-dose schedule (4-8 doses) and the preparations then washed at regular intervals until baseline tension was recorded. After an appropriate interval (1-1.5 hrs) agonist dose response curves were repeated in the presence of antagonist drug concentrations. […] EC50 values were obtained by regression analysis and used to calculate `apparent` and Schild Plot pA2 values by the method of Tallarida and Murray 1981.
In Table 6 below are presented data indicating the prostanoid antagonist activities of compounds of the present invention indicated in Table 1. It is to be noted that pA2 values are on a logarithmic scale, so that, for instance, a difference between two pA2 values of 1 represents a difference in potency by a factor of 10.

[2] = test system: human platelets; assay: Inhibition of U44069-induced threshold aggregation of human platelets; type: cell-based; settings: compound A versus compound 1; compound B versus compound 3
Description: INHIBITION OF INDUCED THRESHOLD AGGREGATION OF HUMAN PLATELETS
Human platelet rich plasma (PRP) is prepared from venous blood of male volunteers who have taken no medication for ten days prior to test. Blood is transferred into plastic centrifuge tubes containing 3.8% Trisodium Citrate in 0.9% NaCl (in a ratio of blood to anticoagulant of 9:1), mixed by gentle inversion, and centrifuged at room temperature for ten minutes at 116 g. The supernatant (PRP) is transferred into plastic tubes. Platelet poor plasma (PPP) is obtained by centrifuging the residual blood cells at 4000 g for ten minutes. PRP is left to stand at least one half hour prior to testing.
Platelet Aggregation is measured using a Payton Aggregometer and Recorder. […]
The threshold (approximately 20-30% of maximum) aggregation concentration of the agonist to be used is first determined in the presence of the drug vehicle (control). […]
The height of the aggegation response (measured in divisions of the recorder paper, 1 division=2.5 mm) in the presence of the drug is recorded, and calculated as percent inhibition of the mean height of the control threshold responses. […]

Structure (SMILES) | Kb [1] | also measured
O=C(O)CC1CCCCc2c1n(Cc1ccc(Cl)cc1)c1ccc(F)cc21 (stereo not drawn) | 0.00135 µM | –
O=C(O)CC1CCCc2c(n(Cc3ccc(Cl)cc3)c3ccc(F)cc23)C1 (stereo not drawn) | 0.00316 µM | –
O=C(O)CC1CCCCc2c1c1cc(F)ccc1n2Cc1ccc(Cl)cc1 (stereo not drawn) | 0.0427 µM | –
COc1ccc2c(c1)c1c(n2Cc2ccc(Cl)cc2)CC(C(=O)O)CC1 (stereo not drawn) [drawing 27] | 0.158 µM | –
COc1ccc2c(c1)c1c(n2Cc2ccc(Cl)cc2)CC(CC(=O)O)CC1 (stereo not drawn) [Compound A, reference compound] | – | potency as an inhibitor of platelet aggregation relative to the seven-membered ring analog [2]: seventy times less potent than compound 1; factor corresponding to the pA2 difference from compound 1 ([1]; compound A versus compound 1): 15; pA2 lower than that of compound 1 ([1]; compound A versus compound 1): 1.7 log units
CS(=O)(=O)c1ccc(Cn2c3c(c4cc(F)cc(F)c42)CCCC(CC(=O)O)C3)cc1 (stereo not drawn) | 0.00832 µM | –
COc1ccc2c(c1)c1c(n2Cc2ccc(Cl)cc2)CC(CC(=O)O)CC1 (stereo not drawn) [drawing 26] | 0.158 µM | –
O=C(O)C1CCCc2c(n(Cc3ccc(Cl)cc3)c3ccc(F)cc23)C1 (stereo not drawn) | 0.129 µM | –
COc1ccc2c(c1)c1c(n2Cc2ccc(Cl)cc2)CC(C(=O)O)CC1 (stereo not drawn) [Compound B, reference compound] | – | potency as an inhibitor of platelet aggregation relative to the seven-membered ring analog [2]: at least four times less potent than the latter; pA2 compared with compound 3, in words ([1]; compound B versus compound 3): slightly lower pA2 value
